Marks after values point to notes of the source that are not given here.
Legend:
[1] = tested on: retinal ganglion cell axons; experiment: Protection of retinal ganglion cell axons from degeneration following optic nerve transection (Table V); assay type: in vivo; conditions: ± SEM
Source text: Efficacy of representative compounds from different immunophilin ligand series in protecing retinal gangiou cell axons from degeneration following optic nerve transection is set forth in Table V.

[2] = Clearance (Table V comments); assay type: in vitro ADME
[3] = tested on: retinal ganglion cells and optic nerve axons; experiment: In vivo retinal ganglion cell and optic nerve axon tests after optic nerve transection, 14 or 28 day treatment, sacrifice at 90 days; design: species or system Sprague Dawley rats; conditions: for RGC Counts: mean density ± SEM of Fluoro-gold labeled RGC in 400 μm × 400 μm gridfields; for ON Axon density: mean ± SEM of RT97 labeled axons in 200 μm × 200 μm region; for increased ON axon density: adjusted for optic nerve diameter; for ON axon Count: calculated by multiplying axonal density by ON area; for Proximal optic nerve myclin basic protein Density: ± SEM, 20X analysis of % areal coverage
Source text: Complete transection of the optic nerve 5 mm from the eyeball produces massive degeneration of retinal ganglion cells, representing loss of >87% of the normal ganglion cell population 90 days after the injury (Table 1). Few spared fluorogold pre labeled ganglion cells are present in vehicle treated cases (large-white figures) among a population of small microglia that digest the debris of the degenerating cells and take up the fluorogold label (FIG. 3A).
90 days after transection few ganglion cell axons remain within the optic nerve (FIG. 4B), representing only 5.6% of the normal population. The loss of axons reflects both the death of retinal ganglion cells and the regression or “dying back” of the axons of ˜70% of the small surviving ganglion cell population into the retina itself (Table 1).
Myelin basic protein immunchistochemistry labels fascicles (darker labeled ‘islands’) of myelinated axons in the normal optic nerve (FIG. 6A, upper left). 90 days after transection extensive degeneration of myelin is evident in vehicle treated cases, characterized by the loss of fascicular organization and the appearance of numerous large dense degenerating myelin figures (FIG. 6B, upper right).
Complete transection of the optic nerve leads to degeneration of the distal segments (axon fragments disconnected from the ganglion cell bodies), and the degeneration of their myelin sheaths.
All eyes and optic nerves stumps were removed.

[4] = tested on: retinal ganglion cells, optic nerve axons and myelin; experiment: Retinal ischemia by raised intraocular pressure, examined 28 days after the episode; assay type: in vivo, adult rats
Source text: Retinal ganglion cells were retrogradely labeled in adult rats by bilateral injection of fluorogold in their lateral geniculate nuclei. Labeled ganglion cells in the normal rat retina appear as white profiles against the dark background (FIG. 1A). Complete retinal ischemia was produced by infusing normal saline solution into the retinal vitreous cavity of each eye until the intraocular pressure exceeded arterial blood pressure. 28 days after the ischemic episode extensive degeneration of retinal ganglion cell was evidenced by massive reduction in the density of fluorogold labeled cells (FIG. 1B).
Optic nerves from vehicle treated cases examined 28 days after a 1 hour retinal ischemic episode are characterized by a decreased density of optic nerve axons and the appearance of numerous degenerating myelin figures (bright white filled circles).

[5] = tested on: streptozotocin-induced diabetic rat; experiment: Streptozotocin-induced diabetic sensory neuropathy, hot plate and tail flick; assay type: in vivo, Male Wistar rats; conditions: lesioned animals treated for 6 weeks at 10 mg/kg s.c.
Description: The procedure involved using Male Wistar rats which were given a single injection of streptozotocin (65 mg/kg i.v.). Blood glucose levels were determined weekly for the first three weeks and on the last week of the experiment. Animals were evaluated weekly for signs of sensory neuropathy using the conventional hot plate and tail flick apparatus test procedures.

[6] = tested on: retinal ganglion cells; experiment: Example 17: optic nerve transection, GPI-1046 for 28 days, sacrifice at 90 days; assay type: in vivo, Sprague Dawley rats; conditions: 10 mg/kg/day s.c. for 28 days
Source text: Transection of the mammalian optic nerve results in a brief period of abortive regeneration, but the majority of axotomized neurons die and the axons from many persisting ganglion cells die back beyond the optic nerve head.

[7] = tested on: retina; experiment: Streptozotocin induced diabetes, retinal neovascularization and neuronal loss; assay type: in vivo
[8] = tested on: aged mice; experiment: Morris watermaze, spatial learning and memory in aged rodents; assay type: in vivo, C57BL/6N-Nia mice; conditions: aged impaired mice, 10 mg/kg daily, retention testing after 3 weeks of dosing
Source text: The Morris watermaze is widely used for assessing spatial memory formation and retention in experimental animals. The test deoends on the animal's ability to utilize spatial visual information in order to locate a submerged escape platform in a water tank. It is important that the tank itself be as devoid of specific visual features as possible—thus, it is always circular in shape, the sides are kept smooth and in uniform dull colors, and the water is rendered opacue with nontoxic watercolour pigment or powdered milk. This is to ensure that the animal navigates only by the use of more distant visual cues, or by the use of intra-maze cues specifically provided by the experimenter. The animals' path, speed, and swim time are tracked with a ceiling camera for lacer computerized analysis. Over the course of several successive trials, spatial learning can therefore be defined as a drop of distance swum, or time elapsed, from placement in the tank until escape onto the invisible platform. The procedure involved using three-month old (young) and 18-19 month old male C57BL/6N-Nia (aged) mice which habituated to the well known and conventional Morris watermaze during a 4 trials/day, 3-4 day visible platform training phase. […] Swim Distances (cm) were analyzed in a 7×5 ANOVA including Groups and Blocks (1-5) as factors in the analysis, treating Blocks as a repeated measure.

[9] = 14 days GPI 1046, 90 days after transection
[10] = 28 days GPI 1046, 90 days after transection
[11] = 28 day treatment beginning 8 weeks after onset of streptozotocin induced diabetes

CCC(C)(C)C(=O)C(=O)N1CCC[C@H]1C(=O)OCCCc1cccnc1 [GPI 1046, 3-(3-pyridyl) -1-propyl (2s) -1-(3,3-dimethyl-1,2-dioxopentyl) -2-pyrrolidinecarboxylate]
RT97 + RGC axon density 14 days after ON transection (% ON axons rescued) [1]: 60.5% ± 3.9 SEM
Clearance [2]: 63.8 µL/min
RGC Counts ([3]; 14 days GPI 1046 10 mg/kg/day sc, 90 days after transection): small but not significant increase
% RGCs Rescued [3, 9]: 5.3%
% surviving RGCs with ON axons [3, 9]: 33.6%
ON head area (% sham) [3, 9]: 76%
Spared RGC population [3, 9]: 20,275
ON Axon density [3, 9]: 569 ± 23
increased ON axon density ([3]; 14 days GPI 1046): 1.5X
ON axon Count ([3]; 14 days GPI 1046): 6820
Distal optic nerve stump shrinkage ([3]; 14 days GPI 1046, cross sectional area compared to sham control): did not protect against shrinkage of the distal stump
Distal optic nerve myclin base protein Density, loss ([3]; 14 days GPI 1046, cross sectional area multiplied by myelin density): slightly increase the density of myelin
Proximal optic nerve myclin basic protein Density ([3]; 14 days GPI 1046): 1.6 ± 3.0 SEM % recovery
RGC Counts ([3]; 28 days GPI 1046 10 mg/kg/day sc, 90 days after transection): 67.9 ± 5.8
% surviving RGCs with ON axons [3, 10]: 81.4%
ON head area (% sham) [3, 10]: 95%*
Spared RGC population [3, 10]: 28,096*
ON Axon density [3, 10]: significant increase in the density of large, and particularly medium and small caliber optic nerve axons
increased ON axon density ([3]; 28 days GPI 1046): 5.0X
ON axon Count ([3]; 28 days GPI 1046): 22,861*
Distal optic nerve stump, less shrinkage ([3]; 28 days GPI 1046, cross sectional area compared to sham control): prevented cross sectional shrinkage
Proximal optic nerve myclin basic protein Density ([3]; 28 days GPI 1046): 70 ± 6.3 SEM % recovery
protection of optic nerve axons ([3]; first 14 days GPI 1046, proximal stump, 90 days after transection): 5.3%
protection of retinal ganglion cells (fluorogold labeled cell density) ([4]; 10 mg/kg s.c. 1 hour prior to ischemia and 10 mg/kg/day for next four days, 28 days after ischemia): noticeable protection of a large proportion of the vulnerable ganglion cell population
density of degenerating myelin figures ([4]; 28 days after 1 hour retinal ischemic episode): dramatically decreased
protection of optic nerve axons from ischemic degeneration ([4]; 28 days after 1 hour retinal ischemic episode, toluidine blue staining): protected the majority of optic nerve axons from degeneration
hot plate and tail flick latency [5]: improvement in latency
ganglion cell population spared (perikaryal neuroprotection) ([6]; 90 days after transection): 25%
preservation of axons in the proximal stump of the transected nerve ([6]; RT97 neurofilament immunohistochemistry): preserved the axons of virtually ali croteczed neurons
loss of neurons in the INL and GCL ([7]; 28 day treatment beginning 8 weeks after onset of diabetes, compared to streptozotocin/vehicle controls): appeared to decrease the loss of neurons in both the INL and GCL
neovascularization in the PR, ONL, OPL and INL [7, 11]: reduced neovascularization
neuronal loss in the ONL [7, 11]: did not appear to protect against neuronal loss in the ONL
spatial memory performance (swim distance, retention testing) [8]: significantly enhanced spatial memory performance

From patent US20010034362A1, “Pyrrolidine derivatives for vision and memory disorders” (Guilford Pharmaceuticals Inc., priority 1998, published 2001)
